Experimental data from US9643982B2, “Fused tricyclic heterocyclic compounds as HIV integrase inhibitors” (Merck Sharp & Dohme Corp., priority 2013, dated 2017).

These compounds were tested on HIV-1 (NL4-3 strain) (assay: Multiple round HIV-1 infection assay in MT4-GFP cells (Wild Type Cell Assay)). Conditions: Human immunodeficiency virus 1, NL43; 0 % NHS (serum-free); MT4-GFP cells infected with HIV-1 NL4-3; read-out: Wild Type Cell Assay IP.
Assay type: cell-based
Method: HIV-1 replication was monitored using MT4-gag-GFP clone D3 (hereafter designate MT4-GFP), which are MT-4 cells modified to harbor a GFP reporter gene, the expression of which is dependent on the HIV-1 expressed proteins tat and rev. Productive infection of an MT4-GFP cell with HIV-1 results in GFP expression approximately 24 h post-infection.
MT4-GFP cells were maintained at 37° C./5% CO2/90% relative humidity in RPMI 1640 supplemented with 10% fetal bovine serum, 100 U/ml penicillin/streptomycin, and 400 μg/ml G418 to maintain the reporter gene. For infections, MT4-GFP cells were placed in the same medium lacking G418 and infected overnight with HIV-1 (NL4-3 strain) virus at an approximate multiplicity of infection of 0.01 in the same incubation conditions.
Cells were then washed and resuspended in either RPMI 1640 supplemented with 10% normal human serum (NHS) or without NHS at 1.6×10^5 cells/mL (10% NHS or serum-free conditions) or in 100% normal human serum at 2×10^5 cells/mL (100% NHS conditions). Compound plates were prepared by dispensing compounds dissolved in DMSO into wells of 384 well poly D lysine-coated plates (0.2 μl/well) using an ECHO acoustic dispenser. Each compound was tested in a 10 point serial 3-fold dilution (typical final concentrations: 8.4 μM-0.42 nM). Controls included no inhibitor (DMSO only) and a combination of three antiviral agents (efavirenz, indinavir, and the integrase strand transfer inhibitor L-002254051 at final concentrations of 4 μM each). Cells were added (50 μL/well) to compound plates and the infected cells were maintained at 37° C./5% CO2/90% relative humidity.
Work on `CCN1C[C@H]2C[C@@H](OC)c3c(C(=O)NCc4ccc(F)cc4F)c(=O)c(O)c(n32)C1=O` (single isomer, unassigned) [Compound 31] yielded an EC50 of 3.8 nM.
`CCN1C(=O)c2c(O)c(=O)c(C(=O)NCc3ccc(F)cc3F)c3n2C(CC3)C1OC` (racemic) [Compound 25] gave an EC50 of 1.9 nM.
`CCN1CC2CC(O)c3c(C(=O)NCc4ccc(F)cc4F)c(=O)c(O)c(n32)C1=O` (racemic) [Compound 24, N-(2,4-difluorobenzyl)-2-ethyl-5,8-dihydroxy-1,7-dioxo-2,3,3a,4,5,7-hexahydro-1H-pyrazino[2,1,6-cd]indolizine-6-carboxamide] was tested, and the EC50 was 2.2 nM.
Work on `COCCN1CC2CCc3c(C(=O)NCc4c(F)cc(F)cc4OC)c(=O)c(O)c(n32)C1=O` (racemic) [Compound 19] yielded an EC50 of 4.4 nM.
Work on `CCO[C@H]1[C@H]2CCc3c(C(=O)NCc4ccc(F)cc4F)c(=O)c(O)c(n32)C(=O)N1CC` (single isomer, unassigned) [Compound 28] yielded an EC50 of 2.1 nM.
For `CCN1C(=O)c2c(O)c(=O)c(C(=O)NCc3ccc(F)c(Cl)c3)c3n2[C@@H](CC3)[C@H]1OC` (single isomer, unassigned) [Compound 26], the EC50 was 3.2 nM.
In the case of `CC(C)N1C[C@@H]2COCc3c(-c4nnc(Cc5ccc(F)cc5F)s4)c(=O)c(O)c(n32)C1=O` (single isomer, unassigned) [Compound 13, 9-(5-(2,4-difluorobenzyl)-1,3,4-thiadiazol-2-yl)-7-hydroxy-5-isopropyl-3,3a,4,5-tetrahydro-1H-2-oxa-3a1,5-diazaphenalene-6,8-dione], the EC50 is reported as 5 nM.
Work on `O=C(NCc1ccc(F)cc1F)c1c2n3c(c(O)c1=O)C(=O)N(Cc1cccnc1)CC3COC2` (racemic) [Compound 7] yielded an EC50 of 9.6 nM.
`O=C(NCc1ccc(F)c(F)c1F)c1c2n3c(c(O)c1=O)C(=O)N(CC1CC1)C[C@H]3CC2` (single isomer, unassigned) [Compound 21] was tested, and the EC50 was 3.1 nM.
`CC(C)N1C[C@@H]2COCc3c(C(=O)NCc4ccc(F)cc4F)c(=O)c(O)c(n32)C1=O` (single isomer, unassigned) [Compound 3] gave an EC50 of 13 nM.
`CN1CC2COCc3c(C(=O)NCc4ccc(F)cc4F)c(=O)c(O)c(n32)C1=O` (racemic) [Compound 1] showed an EC50 of 9.2 nM.
`CCN1CC2CCc3c(C(=O)NCc4ccc(F)cc4F)c(=O)c(O)c(n32)C1=O` (racemic) [Compound 18, N-(2,4-difluorobenzyl)-2-ethyl-8-hydroxy-1,7-dioxo-2,3,3a,4,5,7-hexahydro-1H-pyrazino[2,1,6-cd]indolizine-6-carboxamide] gave an EC50 of 2.6 nM.
With `O=C(NCc1ccc(F)cc1F)c1c2n3c(c(O)c1=O)C(=O)N(CCC(F)(F)F)C[C@@H]3CC2` (single isomer, unassigned) [Compound 20] the EC50 was 3.8 nM.
`CCN1CC2CC(C)c3c(C(=O)NCc4ccc(F)cc4F)c(=O)c(O)c(n32)C1=O` (single isomer, unassigned) [Compound 35, N-(2,4-difluorobenzyl)-2-ethyl-9-hydroxy-6-methyl-1,8-dioxo-2,3,3a,5,6,8-hexahydro-1H-pyrazino[2,1,6-cd]indolizine-7-carboxamide] was tested, and the EC50 was 1.2 nM.
Work on `CC(C)N1CC2C(=O)N(C)Cc3c(C(=O)NCc4ccc(F)cc4F)c(=O)c(O)c(n32)C1=O` (racemic) [Compound 16, N-(2,4-difluorobenzyl)-9-hydroxy-2-isopropyl-5-methyl-1,4,8-trioxo-1,2,3,3a,4,5,6,8-octahydro-2,3a1,5-triazaphenalene-7-carboxamide] yielded an EC50 of 17 nM.
`COCCN1C(=O)c2c(O)c(=O)c(C(=O)NCc3ccc(F)cc3F)c3n2[C@H](CC3)[C@@H]1OC` (single isomer, unassigned) [Compound 27] was tested, and the EC50 was 2.3 nM.
In the case of `CCN1C[C@@H]2C[C@@H](OC)c3c(C(=O)NCc4ccc(F)cc4F)c(=O)c(O)c(n32)C1=O` (single isomer, unassigned) [Compound 30], the EC50 is reported as 1 nM.
With `COCCC(C)N1CC2COCc3c(C(=O)NCc4ccc(F)cc4F)c(=O)c(O)c(n32)C1=O` (centres unmarked) [Compound 6] the EC50 was 24 nM.
Compound `CCN1CC2CC(OC)c3c(C(=O)NCc4ccc(F)cc4F)c(=O)c(O)c(n32)C1=O` (racemic) [Compound 29] has an EC50 of 1.2 nM.
`CC(C)N1C[C@@H]2COCc3c(-c4cnn(Cc5ccc(F)cc5F)c4)c(=O)c(O)c(n32)C1=O` (single isomer, unassigned) [Compound 15] gave an EC50 of 234 nM.
Work on `CC(C)N1CC2COCc3c(-c4cnn(Cc5ccc(F)cc5F)c4)c(=O)c(O)c(n32)C1=O` (racemic) [Compound 14] yielded an EC50 of 323 nM.
Work on `CNC(=O)c1c2n3c(c(O)c1=O)C(=O)N(Cc1ccc(F)cc1)CC3CC2` (racemic) [Compound 17, 2-(4-fluorobenzyl)-8-hydroxy-N-methyl-1,7-dioxo-2,3,3a,4,5,7-hexahydro-1H-pyrazino[2,1,6-cd]indolizine-6-carboxamide] yielded an EC50 of 35 nM.
Compound `CCN1C[C@@H]2C[C@@H](OC)c3c(C(=O)NCc4ccc(F)c(Cl)c4F)c(=O)c(O)c(n32)C1=O` (single isomer, unassigned) [Compound 34] has an EC50 of 2.9 nM.
`CO[C@H](C)CN1C[C@H]2CCc3c(C(=O)NCc4ccc(F)cc4F)c(=O)c(O)c(n32)C1=O` (single isomer, unassigned) [Compound 22] gave an EC50 of 2.8 nM.
In the case of `CCN1CC2CC(C)c3c(C(=O)NCc4ccc(F)c(F)c4F)c(=O)c(O)c(n32)C1=O` (single isomer, unassigned) [Compound 37], the EC50 is reported as 1.1 nM.
In the case of `COCCN1CC2CC(C)c3c(C(=O)NCc4ccc(F)cc4F)c(=O)c(O)c(n32)C1=O` (single isomer, unassigned) [Compound 36], the EC50 is reported as 3.9 nM.
Work on `COc1ccc(CN2CC3COCc4c(C(=O)NCc5ccc(F)cc5F)c(=O)c(O)c(n43)C2=O)cc1` (racemic) [Compound 8] yielded an EC50 of 23 nM.
For `CCO[C@@H]1C[C@H]2CN(CC)C(=O)c3c(O)c(=O)c(C(=O)NCc4ccc(F)cc4F)c1n32` (single isomer, unassigned) [Compound 38], the EC50 was 1.9 nM.
In the case of `CO[C@@H]1C[C@H]2CN(CC3CC3)C(=O)c3c(O)c(=O)c(C(=O)NCc4ccc(F)cc4F)c1n32` (single isomer, unassigned) [Compound 33], the EC50 is reported as 2.3 nM.
Compound `CC(C)(O)CN1C[C@@H]2CCc3c(C(=O)NCc4ccc(F)c(F)c4F)c(=O)c(O)c(n32)C1=O` (single isomer, unassigned) [Compound 23] has an EC50 of 3.8 nM.
`COCCN1C[C@H]2C[C@H](OC)c3c(C(=O)NCc4ccc(F)cc4F)c(=O)c(O)c(n32)C1=O` (single isomer, unassigned) [Compound 32] gave an EC50 of 2.3 nM.
With `COCCN1CC2COCc3c(C(=O)NCc4ccc(F)cc4F)c(=O)c(O)c(n32)C1=O` (racemic) [Compound 5] the EC50 was 9.2 nM.

Same assay, conditions: Human immunodeficiency virus 1, NL43; 10 % NHS (normal human serum); MT4-GFP cells infected with HIV-1 NL4-3; read-out: Wild Type Cell Assay IP
For `CC(C)N1CC2COCc3c(C(=O)NCc4ccc(F)cc4F)c(=O)c(O)c(n32)C1=O` (racemic) [Compound 2], the EC50 was 33 nM.
`CC(C)CN1CC2COCc3c(C(=O)NCc4ccc(F)cc4F)c(=O)c(O)c(n32)C1=O` (racemic) [Compound 4] gave an EC50 of 21 nM.
`Cc1c(F)ccc(CNC(=O)c2c3n4c(c(O)c2=O)C(=O)N(C(C)C)CC4COC3)c1F` (racemic) [Compound 11] was tested, and the EC50 was 116 nM.
In the case of `CC(C)N1CC2COCc3c(C(=O)NCc4ccc(F)c(Cl)c4)c(=O)c(O)c(n32)C1=O` (racemic) [Compound 10], the EC50 is reported as 100 nM.
For `CC(C)N1CC2COCc3c(C(=O)NCc4ccc(F)c(Cl)c4F)c(=O)c(O)c(n32)C1=O` (racemic) [Compound 12], the EC50 was 50 nM.
For `CC(C)N1C[C@@H]2COCc3c(C(=O)NCc4ccc(F)c(F)c4F)c(=O)c(O)c(n32)C1=O` (single isomer, unassigned) [Compound 9], the EC50 was 20 nM.
